Results from US20260137701A1, “CHOLESTENOIC ACID (CA) AND A SULFATED DERIVATIVE THEREOF, 3[BETA]-SULFATE-5-CHOLESTENOIC ACID (CA3S), AS ENDOGENOUS EPIGENETIC REGULATORS” (priority 2022, published 2026).

Test system: HepG-2 cells
Experiment: Whole genome bisulfite sequencing (WGBS), differentially methylated regions
Assay type: cell-based, human
Settings: for DMR (Methylation %) UQCRC1 promoter region / DMR (Methylation %) VDAC2 promoter region / number of DMRs in promoter region, hyper-methylated / number of DMRs in promoter region, hypo-methylated / number of DMRs in promoter region, total / DMR (Methylation %) ADRA1A promoter region / DMR (Methylation %) ADRA1B promoter region / DMR (Methylation %) ADRA1 promoter region / DMR (Methylation %) BCL6 promoter region / DMR (Methylation %) CACNA1D promoter region / DMR (Methylation %) CALML3 promoter region / DMR (Methylation %) CALML4 promoter region / DMR (Methylation %) CAMKK2 promoter region / DMR (Methylation %) COX7B promoter region / DMR (Methylation %) COX8A promoter region / DMR (Methylation %) CPT1A promoter region / DMR (Methylation %) CPT1C promoter region / DMR (Methylation %) CREB3L4 promoter region / DMR (Methylation %) CYP1A1 promoter region / DMR (Methylation %) ESR2 promoter region / DMR (Methylation %) FBP1 promoter region / DMR (Methylation %) FGF1 promoter region / DMR (Methylation %) FGF8 promoter region / DMR (Methylation %) FGFR2 promoter region / DMR (Methylation %) LDHA promoter region / DMR (Methylation %) LDHAL6A promoter region / DMR (Methylation %) LDHC promoter region / DMR (Methylation %) LEP promoter region / DMR (Methylation %) MIR29A promoter region / DMR (Methylation %) MIRLET7B promoter region / DMR (Methylation %) MTOR promoter region / DMR (Methylation %) NTRK3 promoter region / DMR (Methylation %) PDHA2 promoter region / DMR (Methylation %) PDHB promoter region / DMR (Methylation %) PHKG1 promoter region / DMR (Methylation %) PPARG promoter region / DMR (Methylation %) SDHA promoter region / DMR (Methylation %) SDHB promoter region / DMR (Methylation %) SPHK2 promoter region: 20 μM CA
Procedure: After culturing HepG-2 cells in DMEM medium with HG for 72 hours followed by treating with 20 μM CA for 0, 3, 6, 12, and 24 hours, genomic DNA from 5×10^7 cells were extracted using QIAamp® DNA Mini Kit (QIAGEN, Hilden, Germany). Each sample, 6 μg, was sent to CD Genomics Co., Ltd (New York, USA) for analysis of WGBS. Total RNA was isolated using the Promega SV total RNA isolation system (Madison, WI, USA) with DNase treatment. Each sample, 2 μg, were sent to CD Genomics Co., Ltd (New York, USA) for analysis of RNA sequencing. The same samples, 2 μg, was used for the first-strand cDNA synthesis as recommended by the manufacturer (Invitrogen, Carlsbad, CA). RT-qPCR was performed using SYBR Green as the indicator on ABI 7500 Fast Real-Time PCR System (Applied Biosystems, Foster City, CA). Amplifications of j-actin or GAPDH were used as internal controls. Relative messenger RNA (mRNA) expression was quantified with the comparative cycle threshold (Ct) method using a sutiable primer set and was expressed as 2-ΔΔCt as described previously.
Each sample, 1 μg of genomic DNA was fragmented by sonication to a mean size of approximately 200-400 bp, and subsequently used for WGBS library construction using Acegen Bisulfite-Seq Library Prep Kit (Acegen) following the manufacturer's instructions. The methylated adapter-ligated DNAs were purified using 0.8×Agencourt AMPure™ XP magnetic beads and subjected to bisulfite conversion by ZYMO EZ DNA Methylation-Gold™ Kit (Zymo Research Corporation, CA, USA). The converted DNAs were then amplified using 25 μl KAPA HiFi™ HotStart Uracil+ ReadyMix (2×) and 8-bp index primers with a final concentration of 1 μM each. The constructed WGBS libraries were then analyzed by Agilent 2100 Bioanalyzer and quantified by a Qubit fluorometer with Quant-iT™ dsDNA HS Assay Kit (Invitrogen), and finally sequenced on Illumina® Hiseq X™ Ten sequencer. After the preparation of the library, Qubit 2.0 and Agilent 2100 were used respectively to detect the concentration of the library and the Insert Size, and the effective concentration (>2 nM) of the library was quantitatively determined by Q-PCR to ensure the library quality.
Samples were sequenced using the Illumina® HiSeq sequencing platform. Raw data generated on the sequencing platform contained a small percentage of low-quality data, which was then filtered to get high-quality data. Bsmap software was used to perform alignments of bisulfite-treated reads to a reference genome (GRCh37). Metilene software was used to identify differentially methylated regions (DMRs). DAVID software (website located at david.ncifcrf.gov/) was used to test the statistical enrichment of DMR related genes in the Gene Ontology (GO) and Kyoto Encyclopedia of Genes and Genomes (KEGG) pathways.

Compound: CC(CCC[C@@H](C)[C@H]1CC[C@H]2[C@@H]3CC=C4C[C@@H](O)CC[C@]4(C)[C@H]3CC[C@]12C)C(=O)O (stereo partly drawn) [CA, 3β-hydroxy-5-cholestenoic acid]
- DMR (Methylation %) UQCRC1 promoter region (6 h): −56.12%
- DMR (Methylation %) VDAC2 promoter region (6 h): −40.06%
- number of DMRs in promoter region, hyper-methylated (6 hours): 1,749
- number of DMRs in promoter region, hypo-methylated (6 hours): 22,621
- number of DMRs in promoter region, total (6 hours): 24,370
- DMR (Methylation %) ADRA1A promoter region (12 h): −30.57%
- DMR (Methylation %) ADRA1B promoter region (12 h): 0%
- DMR (Methylation %) ADRA1 promoter region (12 h): −30.57%
- DMR (Methylation %) BCL6 promoter region (12 h): −33.25%
- DMR (Methylation %) CACNA1D promoter region (12 h): 0%
- DMR (Methylation %) CALML3 promoter region (12 h): −30.32%
- DMR (Methylation %) CALML4 promoter region (12 h): −21.6%
- DMR (Methylation %) CAMKK2 promoter region (12 h): −23.88%
- DMR (Methylation %) COX7B promoter region (12 h): 0%
- DMR (Methylation %) COX8A promoter region (12 h): 0%
- DMR (Methylation %) CPT1A promoter region (12 h): −16.93%
- DMR (Methylation %) CPT1C promoter region (12 h): −24.72%
- DMR (Methylation %) CREB3L4 promoter region (12 h): 0%
- DMR (Methylation %) CYP1A1 promoter region (12 h): 0%
- DMR (Methylation %) ESR2 promoter region (12 h): −28.97%
- DMR (Methylation %) FBP1 promoter region (12 h): 0%
- DMR (Methylation %) FGF1 promoter region (12 h): −48.58%
- DMR (Methylation %) FGF8 promoter region (12 h): −37.87%
- DMR (Methylation %) FGFR2 promoter region (12 h): 0%
- DMR (Methylation %) LDHA promoter region (12 h): −36.43%
- DMR (Methylation %) LDHAL6A promoter region (12 h): 0%
- DMR (Methylation %) LDHC promoter region (12 h): 0%
- DMR (Methylation %) LEP promoter region (12 h): −62.7%
- DMR (Methylation %) MIR29A promoter region (12 h): −22.09%
- DMR (Methylation %) MIRLET7B promoter region (12 h): 0%
- DMR (Methylation %) MTOR promoter region (12 h): −27.13%
- DMR (Methylation %) NTRK3 promoter region (12 h): −53.95%
- DMR (Methylation %) PDHA2 promoter region (12 h): −28.93%
- DMR (Methylation %) PDHB promoter region (12 h): 0%
- DMR (Methylation %) PHKG1 promoter region (12 h): −24.54%
- DMR (Methylation %) PPARG promoter region (12 h): −27.41%
- DMR (Methylation %) SDHA promoter region (12 h): 0%
- DMR (Methylation %) SDHB promoter region (12 h): −38.35%
- DMR (Methylation %) SPHK2 promoter region (12 h): −18.02%
- DMR (Methylation %) UQCRC1 promoter region (12 h): −23.36%
- DMR (Methylation %) VDAC2 promoter region (12 h): −19.71%
- number of DMRs in promoter region, hyper-methylated (12 hours): 1,891
- number of DMRs in promoter region, hypo-methylated (12 hours): 23,813
- number of DMRs in promoter region, total (12 hours): 25,704
- DMR (Methylation %) ADRA1A promoter region (24 h): −30.81%
- DMR (Methylation %) ADRA1B promoter region (24 h): 0%
- DMR (Methylation %) ADRA1 promoter region (24 h): −30.81%
- DMR (Methylation %) BCL6 promoter region (24 h): −31.52%
- DMR (Methylation %) CACNA1D promoter region (24 h): 0%
- DMR (Methylation %) CALML3 promoter region (24 h): −26.91%
- DMR (Methylation %) CALML4 promoter region (24 h): −21%
- DMR (Methylation %) CAMKK2 promoter region (24 h): 0%
- DMR (Methylation %) COX7B promoter region (24 h): 0%
- DMR (Methylation %) COX8A promoter region (24 h): −34.15%
- DMR (Methylation %) CPT1A promoter region (24 h): −29.33%
- DMR (Methylation %) CPT1C promoter region (24 h): −24.09%
- DMR (Methylation %) CREB3L4 promoter region (24 h): −35.93%
- DMR (Methylation %) CYP1A1 promoter region (24 h): −27.04%
- DMR (Methylation %) ESR2 promoter region (24 h): −24.69%
- DMR (Methylation %) FBP1 promoter region (24 h): −28.62%
- DMR (Methylation %) FGF1 promoter region (24 h): 0%
- DMR (Methylation %) FGF8 promoter region (24 h): 0%
- DMR (Methylation %) FGFR2 promoter region (24 h): −24.29%
- DMR (Methylation %) LDHA promoter region (24 h): −32.94%
- DMR (Methylation %) LDHAL6A promoter region (24 h): −22.36%
- DMR (Methylation %) LDHC promoter region (24 h): −31.77%
- DMR (Methylation %) LEP promoter region (24 h): 0%
- DMR (Methylation %) MIR29A promoter region (24 h): −26.93%
- DMR (Methylation %) MIRLET7B promoter region (24 h): −24.75%
- DMR (Methylation %) MTOR promoter region (24 h): 0%
- DMR (Methylation %) NTRK3 promoter region (24 h): −53.82%
- DMR (Methylation %) PDHA2 promoter region (24 h): −38.56%
- DMR (Methylation %) PDHB promoter region (24 h): −26.74%
- DMR (Methylation %) PHKG1 promoter region (24 h): −33.52%
- DMR (Methylation %) PPARG promoter region (24 h): −27.57%
- DMR (Methylation %) SDHA promoter region (24 h): −23.5%
- DMR (Methylation %) SDHB promoter region (24 h): 0%
- DMR (Methylation %) SPHK2 promoter region (24 h): −45.29%
- DMR (Methylation %) UQCRC1 promoter region (24 h): −26.32%
- DMR (Methylation %) VDAC2 promoter region (24 h): −26.13%
- number of DMRs in promoter region, hyper-methylated (24 hours): 1,594
- number of DMRs in promoter region, hypo-methylated (24 hours): 26,762
- number of DMRs in promoter region, total (24 hours): 28,356
- number of genes with demethylation of 5 mCpG to CpG in promoter regions (HepG-2 cells): over 7,000
